For one series, the system named is SARS-CoV2-NLuc. Description: microbe, parasite or virus in culture. The format is cell-based, SARS Coronavirus 2. The conditions noted are these: Severe acute respiratory syndrome coronavirus 2, 48 h, read-out: SARS-CoV2 EC50 (nM).
A further series has as its system RSV-Luc5. Kind of series: microbe, parasite or virus in culture. In kind it is cell-based. To be noted: human respiratory syncytial virus, NHBE, 72 h, read-out: RSV NHBE EC50 (nM).
Series [1] in a line: in vitro. The format is cell-based. To be noted: human. An outline of the steps:
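Uninfected MT4 cells cultured with compound 4–5 days at 37 °C, equilibrated to 25 °C, and viability read by CellTiter-Glo luminescence. Untreated and 2 μM puromycin-treated cells defined 100% and 0% viability; CC50, the concentration reducing viability by 50%, from non-linear regression.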

The nature of series [2]: in vitro. In kind it is in vitro ADME. To be noted: human, s9, pH 7.4. The gist of the method:
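Test compounds at 2 μM final were incubated in a GI S9 reaction mixture, reactions being started by substrate addition. Diluted supernatants were quantified by LC/MS on a Q-Exactive using analyte/internal standard peak area ratios, with 0.1% formic acid water/acetonitrile gradient elution and 5 ppm mass tolerance.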

Series [3] relates to Caco-2 cells (clone C2BBe1). To be noted: human, Caco-2.

Each structure is given as a SMILES string. Where two headings read alike, the source gives them in different places.

Usually EC50 stands for the concentration needed to bring the measured effect to its halfway point. The term CC50 denotes the concentration at which the toxic effect on the cells reaches its halfway point. Low values mean greater toxicity to the cells, high ones lower toxicity to the cells. Broadly, the half-life is the time in which the quantity being followed falls by half. A high value points to slow loss. As for `CC(C)C(=O)OC[C@H]1O[C@@](C#N)(c2ccc3c(N)ncnn23)[C@@H]2OC(=O)CCCC(=O)O[C@@H]21` [Compound C54, ((7aR,8R,10R,10aR)-10-(4-aminopyrrolo[2,1-f][1,2,4]triazin-7-yl)-10-cyano-2,6-dioxooctahydro-2H-furo[3,4-b][1,4]dioxonin-8-yl)methyl isobutyrate], the figures for the EC50 in the series on SARS-CoV2-NLuc and in the series with RSV-Luc5 were 7880 nM and 6040 nM, respectively. In addition, the CC50 in “in vitro [1]” is > 50 µM. The half-life at 2 μM in the series “in vitro [2]” came to 35.3 s. In addition, the “Human Plasma T1/2” value (2 μM) came out at 180 s. Besides, the “Caco2 A to B” value in series [3] is reported as 1. Further, in series [3], the “Caco2 B to A” value turned out to be 2.98.
In the case of `CC(C)OC(=O)OC[C@H]1O[C@@](C#N)(c2ccc3c(N)ncnn23)[C@@H]2OC(=O)CCCCC(=O)O[C@@H]21` [Compound C7, ((8aR,9R,11R,11aR)-11-(4-aminopyrrolo[2,1-f][1,2,4]triazin-7-yl)-11-cyano-2,7-dioxodecahydrofuro[3,4-b][1,4]dioxecin-9-yl)methyl isopropyl carbonate], the EC50 in the series with SARS-CoV2-NLuc was > 50000 nM. For the same compound, the EC50 in the series with RSV-Luc5 is 2730 nM. In addition, the cytotoxic concentration (CC50) in “in vitro [1]” was > 50 µM. This compound yielded a half-life at 2 μM in “in vitro [2]” of 35.8 s. Also, the “Human Plasma T1/2” value (2 μM) came to 180 s. In series [3], the “Caco2 A to B” value amounted to 4.31 and the “Caco2 B to A” value is recorded as 9.89.
As to `CC(C)OC(=O)OC[C@H]1O[C@@](C#N)(c2ccc3c(N)ncnn23)[C@@H]2OC(=O)CCC=CCCC(=O)O[C@@H]21` [Compound C9, ((10aR,11R,13R,13aR)-13-(4-aminopyrrolo[2,1-f][1,2,4]triazin-7-yl)-13-cyano-2,9-dioxo-2,3,4,7,8,9,10a,11,13,13a-decahydrofuro[3,4-b][1,4]dioxacyclododecin-11-yl)methyl isopropyl carbonate], the EC50 in the series with SARS-CoV2-NLuc came to 27500 nM. For the same compound, the half-maximal effective concentration (EC50) in the series on RSV-Luc5 came out at 3050 nM. The CC50 in the series “in vitro [1]” was > 50 µM. Moreover, in “in vitro [2]”, the half-life at 2 μM amounted to 39.3 s. Also, where the note is “2 μM”, the “Human Plasma T1/2” value is 180 s. In series [3], the “Caco2 A to B” value worked out at 18.29 and the “Caco2 B to A” value amounted to 17.94.
With `CC(C)OC(=O)OC[C@H]1O[C@@](C#N)(c2ccc3c(N)ncnn23)[C@@H]2OC(=O)CCOCCC(=O)O[C@@H]21` [Compound C8, ((9aR,10R,12R,12aR)-12-(4-aminopyrrolo[2,1-f][1,2,4]triazin-7-yl)-12-cyano-2,8-dioxooctahydro-2H,6H-furo[3,4-b][1,4,8]trioxacycloundecin-10-yl)methyl isopropyl carbonate], the EC50 was > 50000 nM with SARS-CoV2-NLuc and 3350 nM in the series with RSV-Luc5. In addition, the CC50 in “in vitro [1]” was > 50 µM. This compound also displayed a half-life at 2 μM in “in vitro [2]” of 41.2 s. The “Human Plasma T1/2” value (2 μM) came out at 180 s. For the same compound, in series [3], the “Caco2 A to B” value was 1.56. Further, the “Caco2 B to A” value in series [3] is 10.63.
As to `N#C[C@@]1(c2ccc3c(N)ncnn23)O[C@H](COC(=O)OC2CCOC2)[C@H]2OC(=O)CCCC(=O)O[C@H]21` (stereo partly drawn) [Compound C23, ((7aR,8R,10R,10aR)-10-(4-aminopyrrolo[2,1-f][1,2,4]triazin-7-yl)-10-cyano-2,6-dioxooctahydro-2H-furo[3,4-b][1,4]dioxonin-8-yl)methyl (tetrahydrofuran-3-yl) carbonate], in the series on SARS-CoV2-NLuc, the EC50 is 18400 nM. In addition, the EC50 in the series with RSV-Luc5 was 19900 nM. Besides, the CC50 in the series “in vitro [1]” is > 50 µM. Besides, the half-life at 2 μM in the series “in vitro [2]” turned out to be 34.1 s. Further, the “Human Plasma T1/2” value (2 μM) is 180 s. Also, in series [3], the “Caco2 A to B” value is given as 0.66 and the “Caco2 B to A” value amounted to 4.38.
On to `COC(C)(C)COC(=O)OC[C@H]1O[C@@](C#N)(c2ccc3c(N)ncnn23)[C@@H]2OC(=O)CCCC(=O)O[C@@H]21` [Compound C22, ((7aR,8R,10R,10aR)-10-(4-aminopyrrolo[2,1-f][1,2,4]triazin-7-yl)-10-cyano-2,6-dioxooctahydro-2H-furo[3,4-b][1,4]dioxonin-8-yl)methyl (2-methoxy-2-methylpropyl) carbonate], for which, in the series on SARS-CoV2-NLuc, the EC50 was 5110 nM. In the series with RSV-Luc5, the EC50 amounted to 4850 nM. For the same compound, the CC50 in the series “in vitro [1]” was > 50 µM. This compound also gave a half-life at 2 μM in the series “in vitro [2]” of 34.1 s. The “Human Plasma T1/2” value (2 μM) was 180 s. Further, in series [3], the “Caco2 A to B” value was found to be 0.88 and the “Caco2 B to A” value worked out at 3.46.
For `N#C[C@@]1(c2ccc3c(N)ncnn23)O[C@H](COC(=O)OC(CF)CF)[C@H]2OC(=O)CCCC(=O)O[C@H]21` [Compound C27, ((7aR,8R,10R,10aR)-10-(4-aminopyrrolo[2,1-f][1,2,4]triazin-7-yl)-10-cyano-2,6-dioxooctahydro-2H-furo[3,4-b][1,4]dioxonin-8-yl)methyl (1,3-difluoropropan-2-yl) carbonate], the results for the EC50 in the series on SARS-CoV2-NLuc and with RSV-Luc5 were 7400 nM and 9810 nM, respectively. The CC50 in “in vitro [1]” was > 50 µM. The compound also returned a half-life at 2 μM in the series “in vitro [2]” of 37 s. Moreover, under “2 μM”, the “Human Plasma T1/2” value amounted to 180 s.
On to `CC(C)OC(=O)OC[C@H]1O[C@@](C#N)(c2ccc3c(N)ncnn23)[C@@H]2OC(=O)CCCCCC(=O)O[C@@H]21` [Compound C6, ((9aR,10R,12R,12aR)-12-(4-aminopyrrolo[2,1-f][1,2,4]triazin-7-yl)-12-cyano-2,8-dioxodecahydro-2H-furo[3,4-b][1,4]dioxacycloundecin-10-yl)methyl isopropyl carbonate], for which the EC50 in the series with SARS-CoV2-NLuc was > 50000 nM. Besides, in the series with RSV-Luc5, the EC50 worked out at 1460 nM. The half-maximal cytotoxic concentration (CC50) in “in vitro [1]” was > 50 µM. The compound further showed a half-life at 2 μM in the series “in vitro [2]” of 38.2 s. Besides, the “Human Plasma T1/2” value (2 μM) worked out at 180 s. In series [3], the “Caco2 A to B” value is on record as 11.12 and the “Caco2 B to A” value is on record as 11.68.
As for `COC(=O)OC[C@H]1O[C@@](C#N)(c2ccc3c(N)ncnn23)[C@@H]2OC(=O)CCCC(=O)O[C@@H]21` [Compound C13, ((7aR,8R,10R,10aR)-10-(4-aminopyrrolo[2,1-f][1,2,4]triazin-7-yl)-10-cyano-2,6-dioxooctahydro-2H-furo[3,4-b][1,4]dioxonin-8-yl)methyl methyl carbonate], the EC50 with SARS-CoV2-NLuc was determined as 4100 nM; with RSV-Luc5 it was 30000 nM. In “in vitro [1]”, the half-maximal cytotoxic concentration (CC50) is > 50 µM. The compound further gave a half-life at 2 μM in the series “in vitro [2]” of 36.8 s. The “Human Plasma T1/2” value (2 μM) worked out at 180 s. The “Caco2 A to B” value in series [3] is 2.1. Moreover, the “Caco2 B to A” value in series [3] was determined as 5.18.
`CCOC(=O)OC[C@H]1O[C@@](C#N)(c2ccc3c(N)ncnn23)[C@@H]2OC(=O)CCCC(=O)O[C@@H]21` [Compound C12, ((7aR,8R,10R,10aR)-10-(4-aminopyrrolo[2,1-f][1,2,4]triazin-7-yl)-10-cyano-2,6-dioxooctahydro-2H-furo[3,4-b][1,4]dioxonin-8-yl)methyl ethyl carbonate]: the “Human Plasma T1/2” value stood at 180 s. Also, the EC50 in the series on SARS-CoV2-NLuc was determined as 5880 nM. In the series on RSV-Luc5, the EC50 worked out at 7940 nM. The CC50 in the series “in vitro [1]” was > 50 µM. The compound also displayed a half-life at 2 μM in the series “in vitro [2]” of 37.3 s. In series [3], the “Caco2 A to B” value turned out to be 1.94 and the “Caco2 B to A” value worked out at 5.31.

(Values after US20240417411A1, “COMPOUNDS AND METHODS FOR TREATMENT OF VIRAL INFECTIONS” (priority 2023, published 2024).)
